Experiments:
[1] = cited from earlier work
Ki-67 = Ki-67 immunohistochemistry (labeling index) in cysts from mice; format: in vivo, BALB/C mice; details: 44 mg/kg/day, 21 days
Method: (§1) The day after the endometrial implant, mice of the treatment group were subjected to gavage with 100 [mu] […] The control group only received water. […] At the end of treatment, mice were killed through cervical dislocation.
(§2) Formalin-fixed samples were paraffin-embedded and tissue sections (5 [mu] [iota] [eta] thick) were stained using haematoxylin-eosin. All slides were evaluated by an experienced pathologist who was blind to the study and the histological diagnosis of endometriosis was based on the morphological identification of endometrial glandular tissue and stroma.
(§3) For immunohistochemistry, sections were deparaffinized and rehydrated in graded ethanol. For antigen retrieval, sections were microwaved for 6 min in 0.1 M citrate buffer (pH 6.0) and endogenous peroxidase activity was blocked by a 20 min incubation in 3% H202/methanol. Sections were rinsed in PBS/TritonX-100, immersed for 15 min in PBS-bovine serum albumin (BSA) 1% to block unspecific binding sites, and then incubated with the selected primary antibody diluted in PBS-BSA 1%. […] The quantification of Ki-67 expression was carried out in a blind fashion by two independent observers; each observer counted at least 200 cells in more than 10 randomly chosen fields for each sample and the Ki-67 labeling index was expressed in percentage.

endometriotic lesions = experiment: Murine model of endometriosis: growth (total weight) of endometriotic lesions; format: in vivo, BALB/C mice; details: mice, gavage 44 mg/kg/day daily for 21 days; n=10 vs n=10; p<0.05
Method: 36 female, 6 to 8 weeks-old BALB/C mice were purchased from Charles River Italia (Calco, Italy). Pellet food (enriched standard diet; Mucedola, Milan, Italy) and water were provided ad libitum. Animals were kept on a light/dark cycle of 16/8 hours under controlled conditions. Prior to any invasive procedure, the mice were anaesthetized by intraperitoneal injection of 0.4 ml of a physiological solution containing 2.5% AVERTIN.
Induction of endometriosis was performed following the method described in Somigliana et al, Hum Reprod 1999 December; 14(12):2944-50. Surgical interventions were performed under clean conditions. Briefly, uterine horns of syngenic mice were removed through a small midline incision into the peritoneal space, just below the umbilicus, and put into a Petri dish containing phosphate-buffered saline (PBS). Endometrial fragments were obtained by finely chopping uterine horns by using a razor blade. Fragments were suspended in 0.6 ml of PBS and rapidly inoculated into the peritoneal cavity of recipient mice with a ratio of one donor to two recipients. The endometriosis-induced mice were randomly divided into two groups of 12 mice each: control and NAC-treatment. […]
At the end of the treatment, animals were sacrificed and endometriotic lesions were carefully excised from the surrounding tissue, their total weight and number was assessed. […]

P21 (cdkn1a) = experiment: RT-PCR of P21 gene expression in cysts from mice; format: in vivo, BALB/C mice; details: 44 mg/kg/day, 21 days
Method: as §1
Total RNA was isolated by lysing the frozen endometrial cysts with TissueLyser (QIAGEN, Milan, Italy) using TRIzol Reagent (Invitrogen, Milan, Italy) according to the manufacturer's instructions. One microgram of total RNA from each sample was treated with 1 U of DNAse I (Invitrogen) and reverse transcribed with 200 U of Superscript III Reverse Transcriptase (Invitrogen), using 250 ng of random primers in 20 [mu] l of final volume. […]
First, the ratio between the sample and the housekeeping gene was calculated by simultaneous amplification of gene-specific mRNA and 18S RNA in a single reaction tube. Since this procedure was not successful for all samples—likely due to the relative small number of specific transcripts thus of a preferential amplification of 18S mRNA—to prevent quantitative inaccuracies deriving from competitive effects, the target genes and 18 S cDNA generated in the same RT reaction were amplified in separate tubes. […] Semi quantitative PCR was performed in a 25 [mu] […] The densitometric analyses of the PCR products were performed using an image software Quantity One (VersaDOC, Bio-Rad).

ovarian endometriomas = experiment: Preliminary clinical study: size of ovarian endometriomas by ultrasound; format: in vivo; details: women
Method: Women with a first diagnosis of endometriosis, based on pain and on ovarian ultrasound evidence of the disease, and patients with a recurrence of pain and/or ovarian endometrioma after laparoscopic treatment were enrolled in the study,
(§4) Before treatment, the intensity of pain symptoms was measured by the means of a 10 points visual analogue scale (VAS) and the characteristics of the ovarian endometriomas by transvaginal ultrasounds. During NAC treatment, other treatments are excluded with the exception of analgesic to treat pain, when needed. Patients.
(§5) From February 2008 to July 2010, 64 women diagnosed for ovaric endometriosis were enrolled in the study, with a mean age of 35+−7 years (+−SD). […] All of them presented one or more cysts at one or both ovaries.
(§6) 1995; 4:245-51), the suspension of the treatment for about half of each week warrants an optimal biological response in a lengthy treatment, e.g. two to six months or longer.
(§7) Pain symptoms intensity (VAS pain scale) and the size of the ovarian endometriomas (clinical and US exams) were evaluated after the first three months of treatment. If necessary, laparoscopic treatment was performed after 3 months.

[2] = Preliminary clinical study: pain intensity by 10-points visual analogue scale (VAS); format: in vivo, women; details: NAC-treated patients, 10-points VAS
Method: as §4, §5, §6, §7
Pain perception was also modified after NAC treatment. Pain was evaluated, before and after the three-months treatment, by a 10-points visual analogue scale (VAS) with zero representing no pain and 10 representing the worst imaginable pain. Intensity of symptoms were classified as none (0), mild (1-4), moderate (5-7), or severe (8-10). NAC-treated patients reported an average pain reduction, from 7.6+−0.3 to 5.1+−0.8 (p<0.01) after three months of treatment.

[3] = Preliminary clinical study: side effects, pregnancy and other observations; format: in vivo, women
Description: as §5, §6, §7

[4] = Toxicity observation in the murine endometriosis model; format: in vivo; details: mice, 44 mg/kg/day by gavage, 21 days
Description: as §1

vaginal hyperalgesia = experiment: Experimentally induced endometriosis in rats: escape response to vaginal distention (vaginal hyperalgesia); format: in vivo, Sprague-Dawley rats; details: 60 mg/kg/day, 8 weeks, 0.5 ml distension volume
Method: 16 adult virgin female Sprague-Dawley rats were used. They weighed 200-230 g at the start of the study and were housed individually in a temperature-controlled room in plastic cages lined with bedding. The rats had ad libitum access to water and rat chow and were maintained on a 12-h light/dark cycle, with lights on at 07:00. Reproductive status (proestrus, estrus, metestrus, and diestrus) was determined by daily vaginal lavage performed. Prior to induction of endometriosis rats were trained to perform an escape response to terminate vaginal distention produced by an inflatable latex balloon. A small uninflated latex balloon was tied to a thin catheter lubricated before being inserted into the mid-vaginal canal. Inflating the balloon with different volumes of air distended the vaginal canal. The pressure produced by each volume of distention was control measured through a small-volume pressure transducer. The testing apparatus was a small cylindrical plexiglass chamber designed to contain the rat just enough to prevent her from turning around. An opening in the rear of the chamber allowed the catheter attached to the vaginal stimulator to be connected to a stimulus apparatus. A photosensor determined the position of the rat in the chamber. If the rat extended, as part of an escape response, the light beam was broken and the stimulus was terminated. The rats were adopted to the testing chamber by placing it in the chamber for 15 min daily for 5 days. The rats were then, during training sessions, accustomed to a mechanical escape response to deflate vaginal distension, which involved the rat extending her head to interrupt the light beam. […] Time to response and escape responses were measured as a function of distention volume for each session, as described in Cason A M et al (Horm Behav. (2003), Vol. 44, pages 123-31). […] For each rat, the escape responses and pressures/volumes for all of that rat's sessions (at least 12 sessions) were combined, and the mean values calculated. […] The escape response to terminate vaginal distention, as described above, was assessed after 8 weeks.

E-cadherin = experiment: Immunohistochemical detection of E-cadherin in cysts from mice; format: in vivo, BALB/C mice; details: 44 mg/kg/day, 21 days, controls: diffused all over cell cytoplasm
Method: as §1, §2, §3

Cox-2 protein = experiment: Immunohistochemical detection of Cox-2 protein in cysts from mice; format: in vivo, BALB/C mice; details: 44 mg/kg/day, 21 days
Method: as §1, §2, §3

CC(=O)N[C@@H](CS)C(=O)O [NAC, N-acetyl-L-cysteine]
time to peak concentration in plasma ([1]; in vivo): about one
time to total clearance ([1]; in vivo): six and twelve
half-life ([1]; plasma): about three
reduction in proliferating cells (Ki-67) relative to control mice (Ki-67; 8 animals per group): 54%
Labeling index for Ki-67 with standard error (Ki-67; n = 8 × 5, p < 0.01): 0.87 ± 0.11%
total weight of endometriotic lesions vs controls (endometriotic lesions): significant weight reduction
P21 gene expressed, number of examined NAC-treated samples (P21 (cdkn1a); never expressed in the 5 controls): 3 of the 5
P21 observed, percent of NAC-treated animals (P21 (cdkn1a); not expressed in controls): 60%
cases with a decrease in cyst size (maximum diameter by ultrasound) (ovarian endometriomas; 1.8 g NAC per day, three consecutive days each week, three months, controls less than 10%): 38%
patients who decided to cancel or postpone the programmed laparoscopy (ovarian endometriomas; NAC treatment three months): 21 out of 33
average pain (VAS) after three months of treatment ([2]; 1.8 g per day three days each week, p<0.01): 5.1+−0.8
average pain (VAS) before treatment ([2]; baseline): 7.6+−0.3
cases of pregnancy ([3]; NAC-treated women, no statistical significance attributed): three
bleeding during laparoscopy after NAC treatment ([3]; anecdotic observation by surgeon, endometrioma more regular and compact): relevant reduction in bleeding
recto-vaginal septum nodule ([3]; one additional case): disappeared
adverse side effects ([3]; women, 1.8 g NAC per day, three days each week, three months): No adverse side effects
body weight at the end of treatment [4]: unchanged
relative reduction in escape response in relation to sham treated group (vaginal hyperalgesia; daily NAC treatment): 18%
relative reduction in escape response in relation to sham treated group (vaginal hyperalgesia; intermittent NAC treatment (5 days and 2 days rest)): 28%
relative reduction in escape response in relation to sham treated group (vaginal hyperalgesia; pulsed NAC treatment (every other day)): 32%
E-cadherin localisation in cysts (E-cadherin): mainly detected along cell-cell junctions
Cox-2 protein immunohistochemical staining relative to cysts from control mice (Cox-2 protein): quite a decreased staining

— US8637573B2 (Iasomai AB, priority 2009, dated 2014)
